Measurements from patent US20230145305A1, “COMPOUNDS USEFUL AS KINASE INHIBITORS” (Fochon Biosciences, Ltd., priority 2020, published 2023).

Columns and labels:
OCI-LY10 cells = assay: Cell proliferation assay (MTS) in OCI-LY10 cells; type: cell-based; details: Homo sapiens; inhibition of OCI-LY10 cells proliferation, 72 h incubation, MTS, absorbance at 490 nm; read-out: OCI-LY10 IC50
Procedure, shortened: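 BTK-dependent OCI-LY10 proliferation: cells seeded at 10000/well, preincubated 4 h, then compound exposure 72 h at 37° C., 5% CO2. MTS added for 2 h and absorbance read at 490 nm; IC50 derived from the concentration-response.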

BTK (C481S) = biological target: T1, BTK (C481S) (Homo sapiens, UniProt Q06187, C481S); assay: Kinase assay of BTK (C481S), [33P]-ATP filter-binding, Reaction Biology Corporation; type: biochemical; details: 6 nM BTK (C481S), 0.2 mg/ml pEY substrate, 10 μM ATP, 20 min preincubation, 120 min reaction at room temperature
T1 construct: purchased SignalChem B10-12CH
Protocol: The kinase activity of BTK (C481S) was assayed at Reaction Biology Corporation. The substrate in the BTK (C481S) reaction, pEY (poly[Glu:Tyr] (4:1)) (Sigma, Cat. #P7244-250MG), was prepared in fresh reaction buffer (20 mM Hepes (pH 7.5), 10 mM MgCl2, 1 mM EGTA, 0.02% Brij35, 0.02 mg/mi BSA, 0.1 mM Na3VO4, 2 mM DTT, 1% DMSO). BTK(C481S) (SignalChem, Cat. #B10-12CH) was delivered into the substrate solution and mixed gently. The final concentrations of BTK (C481S) and the substrate in the reaction mixture were 6 nM and 0.2 mg/ml, respectively. Compounds were tested in 10-point concentration/response mode with 3-fold serial dilution steps starting at 1 μM.
Compounds in 100% DMSO were delivered into the kinase reaction mixture by acoustic liquid delivery technology (Echo550; nanoliter range) and incubated for 20 min at room temperature. 10 μM [^33P]-ATP (ATP: Sigma, Cat #: A7699; [^33P]-ATP: Hartmann Analytic, Cat #: SCF-301-12) was delivered into the reaction mixture to initiate the reaction. The mixture was incubated for 120 min at room temperature. Radioactivity was detected utilizing a proprietary filter-binding method. Kinase activity data were expressed as the percent remaining kinase activity in test samples compared to vehicle (DMSO) reactions. IC50 values were obtained using GraphPad Prism software.
Select compounds prepared as described above were assayed according to the biological procedures described herein.

T1 sequence (Q06187 whole entry C481S): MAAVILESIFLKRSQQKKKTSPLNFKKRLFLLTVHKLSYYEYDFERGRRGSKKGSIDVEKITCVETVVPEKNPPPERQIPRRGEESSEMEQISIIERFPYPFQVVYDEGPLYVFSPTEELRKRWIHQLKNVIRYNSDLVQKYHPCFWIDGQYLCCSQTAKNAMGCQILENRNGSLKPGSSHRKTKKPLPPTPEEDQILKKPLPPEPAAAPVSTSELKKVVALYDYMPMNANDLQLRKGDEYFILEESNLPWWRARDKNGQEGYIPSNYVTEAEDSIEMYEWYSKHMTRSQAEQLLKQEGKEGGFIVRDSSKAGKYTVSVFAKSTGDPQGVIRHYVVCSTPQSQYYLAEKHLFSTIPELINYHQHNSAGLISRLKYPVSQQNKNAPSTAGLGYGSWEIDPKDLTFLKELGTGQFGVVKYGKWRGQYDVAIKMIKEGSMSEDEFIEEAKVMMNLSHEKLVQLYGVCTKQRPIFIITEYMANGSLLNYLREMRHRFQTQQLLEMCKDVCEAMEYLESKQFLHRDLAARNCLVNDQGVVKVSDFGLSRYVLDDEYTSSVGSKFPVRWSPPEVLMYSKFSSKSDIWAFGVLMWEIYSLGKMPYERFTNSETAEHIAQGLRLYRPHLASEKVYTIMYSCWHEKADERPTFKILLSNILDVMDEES

| Compound | IC50 (OCI-LY10 cells) [nM] | IC50 (BTK (C481S)) [nM] |
| --- | --- | --- |
| COc1ccc(F)cc1C(=O)NCc1ccc(-n2cc(C3CCCC3)c3c(=O)[nH]nc(N)c32)cc1 [Example 8, N-(4-(7-amino-3-cyclopentyl-4-oxo-4,5-dihydro-1H-pyrrolo[2,3-d]pyridazin-1-yl)benzyl)-5-fluoro-2-methoxybenzamide] | 1 | 0.45 |
| COc1ccc(F)cc1C(=O)NCc1ccc(-c2nn(C3CCCC3)c3c(=O)[nH]nc(N)c23)cc1 [Example 11, N-(4-(4-amino-1-cyclopentyl-7-oxo-6,7-dihydro-1H-pyrazolo[3,4-d]pyridazin-3-yl)benzyl)-5-fluoro-2-methoxybenzamide] | 1 | 0.5 |
| COc1ccc(F)cc1C(=O)NCc1ccc(-c2cn(C3CCCC3)c3c(=O)[nH]nc(N)c23)cc1 [Example 17, N-(4-(4-amino-1-cyclopentyl-7-oxo-6,7-dihydro-1H-pyrrolo[2,3-d]pyridazin-3-yl)benzyl)-5-fluoro-2-methoxybenzamide] | 1 | 0.5 |
| COc1ccc(F)cc1C(=O)NCc1ccc(-c2nn([C@H]3CCC[C@H]3F)c3c(=O)[nH]nc(N)c23)cc1 [Example 81, N-(4-(4-amino-1-((1S,2R)-2-fluorocyclopentyl)-7-oxo-6,7-dihydro-1H-pyrazolo[3,4-d]pyridazin-3-yl)benzyl)-5-fluoro-2-methoxybenzamide] | 1 | 0.91 |
